One test has as its system NCI-H358. In words: Cell viability assay (CellTiter-Glo), NCI-H358. In kind it is cell-based, human. To be noted: Day 5, CellTiter-Glo. How it is done: (§1) Cell lines and maintenance: All cell lines used for in vitro and in vivo studies were supplied as part of Crown Biosciences cell bank except KYSE520, which was provided by HUYABIO. All cell lines were maintained according to source at 37° C. and 5% CO2 unless otherwise noted. Human Lung cancer cell lines NCI-H358, HCC827, Esophageal cancer cell line KYSE520, Stomach cancer cell line NCI-N87 and Mouse Colon cancer cell line MC38 were cultured in RPMI1640+10% FBS. Pancreatic cell line MiaPaca-2 was cultured in MDME+10% FBS+2.5% HS. Pancreatic cancer cell line CAPAN-1 was cultured in IMDM+20% FBS. Brain cancer cell line U87MG was cultured in MEM+0.01 mM NEAA+10% FBS. Lung cancer cell line HCC827-ER1 (Derived from HCC827 at Crown Biosciences) was cultured in RPMI1640+10% FBS+42 μM erlotinib. Lung cancer cell line NCI-H1975 (developed at Synthego Corporation) was cultured in RPMI1640+10% FBS+100 μg/ml Hygromycin (Sun, 2020).
(§2) Cell Viability Assay: For cell cytotoxicity assays, cells were plated in 96-well plates and plating densities were determined on the basis of Crown Biosciences Cell line Database. Cells were plated at 2000 cells/well. Twenty four hours after plating, cells were treated with inhibitors at the indicated compound concentrations. On Day 5, cells were lysed with CellTiter-Glo® Luminescent Cell Viability Assay reagent (Promega) and luminescence was read using the EnVision Multi-plate reader. To calculate IC50 values, a dose-response curve is generated using a nonlinear regression model with a sigmoidal dose response. The formula of surviving rate is shown below. IC50 values were automatically generated by GraphPad Prism 8.0. The results of these assays are depicted in FIG. 1 and Table 1, and further in FIG. 9A (HCC827-ER1) and 9B (NCI-H1975 (L858R/T790M/C797S)).
In general terms: Cellular ATP, detected with luciferase, serves as a proxy for viable cell number.

The test system of the next test is NCI-H1975. The test is described as follows: Cell viability assay (CellTiter-Glo), NCI-H1975. Type of test: cell-based. To be noted: Day 5, CellTiter-Glo. Here is the method: as §1, §2
The next test deals with MIAPaCa-2. In words: Cell viability assay (CellTiter-Glo), MIAPaCa-2. To be noted: Day 5, CellTiter-Glo. Type of test: cell-based. Here is the method:
as §1
(§3) Cell Viability Assay: For cell cytotoxicity assays, cells were plated in 96-well plates and plating densities were determined on the basis of Crown Biosciences Cell line Database. Cells were plated at 2000 cells/well. […] On Day 5, cells were lysed with CellTiter-Glo® Luminescent Cell Viability Assay reagent (Promega) and luminescence was read using the EnVision Multi-plate reader. […]

The test system of the next test is U87MG. In words: Cell viability assay (CellTiter-Glo), U87MG. In kind it is cell-based. To be noted: Day 5, CellTiter-Glo. Here is the method: as §1, §2
Another test has as its system Capan-1. The test is described as follows: Cell viability assay (CellTiter-Glo), Capan-1. In kind it is cell-based. To be noted: Day 5, CellTiter-Glo. How it is done:
as §1, §3

In the next test the test system is KYSE 520. The test is described as follows: Cell viability assay (CellTiter-Glo), KYSE 520. Type of test: cell-based, human. To be noted: Day 5, CellTiter-Glo. Here is the method: as §1, §2
The next test has as its system NCI-N87. The test is described as follows: Cell viability assay (CellTiter-Glo), NCI-N87. Type of test: cell-based, human. Conditions: Day 5, CellTiter-Glo. How it is done:
as §1, §2

A further test concerns HCC827. The test is described as follows: Cell viability assay (CellTiter-Glo), HCC827. In kind it is cell-based, human. To be noted: Day 5, CellTiter-Glo. Here is the method: as §1, §2
The subject of test [1] is lung cancer cell line HCC827-ER1. In words: Cell viability assay, HCC827-ER1 (FIG. 9A). Type of test: cell-based, human. How it is done: as §1, §3
The test system of test [2] is NCI-H1975 (L858R/T790M/C797S). The test is described as follows: Cell viability assay, Osimertinib resistant NCI-H1975 (FIG. 9B). In kind it is cell-based. How it is done:
as §1, §3

The next test concerns cancer cell lines. In words: Cell proliferation assays, cell line panel (FIG. 1). Type of test: cell-based. Conditions: compared with GH21001 (TNO-155), RMC-4550, Cisplatin. How it is done: as §1, §3
In the next test the test system is MC38 tumors. In words: Tumor and blood immunotyping (FACS) in MC38 model. Type of test: in vivo, mouse. Here is the method:
All cell lines were maintained in culture and cells in exponential growth phase were harvested and quantitated by cell counter before tumor inoculation. MC38 tumor cells (1×10^6) in 0.1 ml of PBS were inoculated into the right front flank of female C57/Bl animals, mean tumor size approximately 112 mm^3 at the start of treatment. NCI-H1975 (EGFR L858R/[…]/C797S) tumor cells (1×10^7) in 0.1 ml of PBS mixed with Matrigel (1:1) inoculated into female NOD/SCID animals, mean tumor approximately 200 mm^3 at the start of treatment. HCC827-ER1 tumor cells (5×10^7) in 0.1 ml of PBS mixed with Matrigel (1:1) inoculated into female Balb/C Nude animals, mean tumor approximately 325 mm^3 at the start of treatment.
The date of randomization and treatment initiation was denoted as day 0. Tumor volumes were measured twice per week in two dimensions using a caliper, and the volume will be expressed in mm^3 using the formula: V=(L×W×W)/2, where V is tumor volume, L is tumor length (the longest tumor dimension) and W is tumor width (the longest tumor dimension perpendicular to L). Dosing volume was 10 mL/kg/day. GH21001 and GH21005 were dissolved in HP-β-CD with 200 ml of 50 mM sodium citrate (pH=4.2). Anti-PD-1 and Rat IgG2a were diluted in PBS. RMC-4550 was diluted in 1% Capitsol in 50 mM sodium citrate (pH=5.0) 0.5% dosing solution of osimertinib was diluted in 2% DMSO/30% PEG300. The results of these experiments are depicted in FIG. 2A-B (MC38 tumors) and FIG. 10A-10B (NCI-H1975 (L858R/T790M/C797S) tumors). The results for HCC827 CDX model are depicted in FIG. 12A-B. Upon termination, tumors were collected. A portion of the tumor was minced and snap frozen immediately for protein isolation or tumor tissue was dissociated for FACs analysis. Another portion of the tumor was fixed in 10% neutral buffered formalin prior to processing into paraffin blocks.
Tumor dissociation: Upon termination animals bearing MC38 tumors, tumors and blood was harvested 12 hours post last dose. Tumors were enzymatically and mechanically dissociated using The Tumor Dissociation Kit (130-096-730) Miltenyi Biotec MACS Technology. Mononuclear blood cells (PBMCs) were isolated from whole blood using Histopaque-1077 (Sigma).
Tumor cell suspension, whole lysed blood or isolated PBMCs were resuspended and blocked in staining buffer with 1 μg/ml Fc-Block (Mouse BD Fc Block™ CAT #553141). All antibodies were diluted in Fc Blocking buffer except FoxP3 which was diluted in Permeabilization Buffer. Antibodies were diluted according to Crown Biosciences optimization. Cell surface markers CD45, CD4, CD335, CD11b, Gr-1 were purchased from Biolegend. CD3 was purchased from BD Biosciences. CD8, FoxP3 and LD BD were purchased from eBiosciences. Data was collected on a cytometer and data was analyzed using Kaluza Analysis Software. The results of these experiments are depicted in FIG. 3 (macrophages), FIG. 4 (monocytes), FIG. 5 (granulocytes), FIG. 6 (CD3+ cells), FIG. 7 (CD4+ cells), and FIG. 8 (CD8+ cells).

In a further test the test system is KC/GRO. In words: Cytokine detection assay (V-Plex Proinflammatory Panel 1 Mouse Kit) in plasma. In kind it is in vivo. To be noted: FIG. 11; tumor bearing animals, 2 hours post last dose; versus GH21001 (TNO-155) and RMC-4550; listed as Formula (Ia). Here is the method: Cytokine detection assay: V-Plex Proinflammatory Panel 1 Mouse Kit (Mesoscale Discovery) was used to determine cytokine levels in plasma isolated from tumor bearing animals 2 hours post last dose. Plasma from tumor bearing animals was analyzed as described by the manufacture's guidelines. Briefly, diluted plasma is introduced to the MSD plate pre-coated with capture antibodies to KC/GRO. After incubation, samples are washed and incubated with secondary detection antibody, (MSD SULFO-TAG™). Electrochemiluminescence detection from the assay is analyzed on the Meso Scale Discovery platform and cytokine levels calculated according to manufacturer's control samples.

Entries after “also recorded” stand apart in the source; their conditions may differ.

What is called IC50 is the point on the concentration scale where inhibition reaches its midpoint. A higher IC50 goes with lower potency.

As for `N.N.[Cl][Pt][Cl]` [Cisplatin], the IC50 in the test with NCI-H358 turned out to be 4850 nM; in the test with NCI-H1975, 3990 nM; in the test with MIAPaCa-2, 7150 nM; in the test with U87MG, 1580 nM; with Capan-1, 270 nM; in the test with KYSE 520 it was 6800 nM. For the same molecule, the figures for the IC50 in the test on NCI-N87 and with HCC827 were 2350 nM and 4790 nM, respectively.

Regarding `Cc1nc(N2CCC3(CC2)CO[C@@H](C)[C@H]3N)c(CO)nc1-c1cccc(Cl)c1Cl` [RMC-4550], the IC50 with NCI-H358 was found to be 440 nM; with NCI-H1975, 1440 nM; in the test with U87MG it was 3900 nM; in the test on KYSE 520, 490 nM; in the test with NCI-N87 it was 260 nM; in the test on HCC827 it was 690 nM.

Consider `C[C@@H]1OCC2(CCN(c3cnc(Sc4cccc(NC(=O)c5c(O)nc6n(c5=O)CCCC6)c4Cl)cn3)CC2)[C@@H]1N` [GH21005, N-(3-((5-((3S,4S)-4-amino-3-methyl-2-oxa-8-azaspiro[4.5]decan-8-yl)pyrazin-2-yl)thio)-2-chlorophenyl)-2-hydroxy-4-oxo-6,7,8,9-tetrahydro-4H-pyrido[1,2-a]pyrimidine-3-carboxamide], for which the IC50 in the test on NCI-H358 (Homo sapiens, 120 h) worked out at 30 nM; in the test with NCI-H1975 (Homo sapiens, 120 h) it was 210 nM; in the test with U87MG (Homo sapiens, U-87 MG, 120 h) it was 230 nM; in the test with KYSE 520 (Homo sapiens, 120 h), 60 nM; in the test on NCI-N87 (Homo sapiens, 120 h), 10 nM; in the test on HCC827 (Homo sapiens, 120 h), 20 nM. Also, the “viability of lung cancer cell line HCC827-ER1” value in test [1] is on record as “reduces viability”. The “viability of Osimertinib resistant cancer cell line NCI-H1975 (L858R/T790M/C797S)” value in [2] is “reduces viability”. The “potency in cell proliferation assays versus other agents” value in the test with cancer cell lines was “greater potency in cell proliferation assays than other agents”. The “macrophage populations in MC38 tumors” value in the test with MC38 tumors (FIG. 3, harvested 12 hours post last dose) is listed as “reduces macrophage populations”. Moreover, the “monocyte populations in MC38 tumors” value in the test on MC38 tumors (FIG. 4, harvested 12 hours post last dose) is reported as “increases monocyte populations”. The “granulocyte populations in MC38 tumors” value in the test with MC38 tumors (FIG. 5, harvested 12 hours post last dose) is listed as “increases granulocyte populations”. For the same molecule, the “circulating CD3+ cell populations” value in the test on MC38 tumors (FIG. 6, MC38 model, blood 12 hours post last dose) is given as “increases circulating CD3+ cell populations”. The “circulating CD4+ cell populations” value in the test with MC38 tumors (FIG. 7, MC38 model, blood 12 hours post last dose) was “increases circulating CD4+ cell populations”. Also, the “circulating CD8+ cell populations” value in the test with MC38 tumors (FIG. 8, MC38 model, blood 12 hours post last dose) is “increases circulating CD8+ cell populations”. For the same molecule, the “KC/GRO level in plasma” value in the test on KC/GRO was “significantly reduced KC/GRO as compared to GH21001 (TNO-155) and RMC-4550; also recorded: reduces KC/GRO significantly more than GH21001 (TNO-155) and RMC-4550”.

`C[C@@H]1OCC2(CCN(c3cnc(Sc4ccnc(N)c4Cl)c(N)n3)CC2)[C@@H]1N` [GH21001]: the IC50 is 460 nM in the test on NCI-H358 (Homo sapiens, 120 h); 1530 nM in the test with U87MG (Homo sapiens, U-87 MG, 120 h); 6060 nM with Capan-1 (Homo sapiens, 120 h); 450 nM in the test with KYSE 520 (Homo sapiens, 120 h); 230 nM with NCI-N87 (Homo sapiens, 120 h); 410 nM with HCC827 (Homo sapiens, 120 h).

Source of the values: patent US12390469B2, “SHP2 inhibitor monotherapy and uses thereof” (HUYABIO International, LLC, priority 2021, dated 2025).
